According to article PMC4826234, “Emodin potentiates the antiproliferative effect of interferon α/β by activation of JAK/STAT pathway signaling through inhibition of the 26S proteasome” (Oncotarget, 2015):

How the values were obtained:
Type in all cases: biochemical
[1] = target: T1, 26S proteasome β5 subunit (chymotrypsin-like activity) (Homo sapiens, UniProt P28074); assay: peptidase assay of purified human […] proteasome with Suc-Leu-Leu-Val-Tyr-AMC
T1 construct: gene PSMB5; purified human 26S proteasome; with other subunits of the 26S proteasome
T1 sequence (P28074 60-263): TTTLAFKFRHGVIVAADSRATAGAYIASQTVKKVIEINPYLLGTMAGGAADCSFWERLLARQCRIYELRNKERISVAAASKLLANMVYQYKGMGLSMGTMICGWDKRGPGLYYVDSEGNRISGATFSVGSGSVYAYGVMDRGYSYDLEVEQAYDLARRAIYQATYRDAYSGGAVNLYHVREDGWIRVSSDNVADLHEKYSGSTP

[2] = target: T2, 26S proteasome β1 subunit (caspase-like activity) (Homo sapiens, UniProt P28072); assay: peptidase assay of purified human […] proteasome with Z-Nle-Pro-Nle-Asp-aminoluciferin
T2 construct: gene PSMB6; purified human 26S proteasome; with other subunits of the 26S proteasome
T2 sequence (P28072 35-239): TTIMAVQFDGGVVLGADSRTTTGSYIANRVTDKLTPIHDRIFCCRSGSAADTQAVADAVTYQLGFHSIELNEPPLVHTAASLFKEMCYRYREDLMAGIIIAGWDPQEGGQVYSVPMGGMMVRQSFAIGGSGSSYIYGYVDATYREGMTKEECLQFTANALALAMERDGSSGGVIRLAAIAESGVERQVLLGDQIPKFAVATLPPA

[3] = target: T3, 26S proteasome β2 subunit (trypsin-like activity) (Homo sapiens, UniProt Q99436); assay: peptidase assay of purified human […] proteasome with Ac-Arg-Leu-Arg-AMC
T3 construct: gene PSMB7; purified human 26S proteasome; with other subunits of the 26S proteasome
T3 sequence (Q99436 44-277): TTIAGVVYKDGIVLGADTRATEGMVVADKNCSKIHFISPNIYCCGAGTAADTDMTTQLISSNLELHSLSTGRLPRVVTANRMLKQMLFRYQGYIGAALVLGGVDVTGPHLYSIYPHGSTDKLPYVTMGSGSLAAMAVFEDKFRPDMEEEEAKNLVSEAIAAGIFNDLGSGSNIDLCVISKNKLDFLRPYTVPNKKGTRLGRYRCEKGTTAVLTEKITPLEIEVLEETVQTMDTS

Cc1cc(O)c2c(c1)C(=O)c1cc(O)cc(O)c1C2=O [emodin, 1,3,8-trihydroxy-6-methylanthraquinone]
IC50 [1]: 1220 nM
IC50 [2]: 240 nM
IC50 [3]: 20800 nM
